Source: PMC5665883, “Antithrombotic properties of JJ1, a potent and novel thrombin inhibitor” (Scientific Reports, 2017)
Marks after values point to notes of the source that are not given here.

Tests used:
[1] = system: mouse platelet; experiment: Ex vivo thrombin-induced platelet aggregation; assay type: in vivo; conditions: i.v. injection
Procedure: The in vitro platelet aggregation study was performed according to a previously reported method[59],[62]. Washed human platelets were incubated with the indicated concentration of JJ1 in DMSO for 1, 3, 5, or 10 min and subsequently stimulated by thrombin in 0.9% saline solution at 37 °C for 5 min. Platelet aggregation was recorded using an aggregometer (Chronolog, Havertown, PA, USA). For the ex vivo aggregation assay, male mice were fasted overnight and the indicated concentration of JJ1 in DMSO was administered by i.v. injection. After 24 h, PRP (10^9 platelets/mL) in a total volume of 240 μL was incubated at 37 °C for 1.5 min in the aggregometer with continuous stirring at 1000 rpm and subsequently stimulated with thrombin. Platelet aggregation was recorded as described above.

[2] = FeCl3-induced arterial thrombosis model; assay type: in vivo, C57BL/6 mice; conditions: mice, i.v.
Procedure: The FeCl3-induced thrombosis mouse model was established as previously described. Male C57BL/6 mice were fasted overnight and were administered JJ1 in DMSO by intravenous injection. Then, mice were anesthetized using 3% isoflurane (Forane®, Choongwae Pharma. Corp., Seoul, Korea) and injected intravenously with 0.1 mL 0.1% rhodamine 6 G (Sigma). A testicular artery (200 μm in diameter) was carefully exposed and a cotton thread (200 μm in diameter) saturated with 0.25 mol/L FeCl3 was applied to the adventitial surface. After 5 min, the cotton thread was removed, and the wound was flushed with saline solution. Thrombus formation was monitored at 35 °C by 3-dimensional imaging as previously described. The size and time of thrombus formation were monitored, and the findings were scored as follows: no thrombus, 0; small thrombus (50 μm × 75 μm), 1; medium-sized thrombus (100 μm × 150 μm), 2; large thrombus (200 μm × 300 μm), 3. The time from FeCl3-mediated endothelial injury to occlusion of the testicular artery by a large thrombus was measured.

[3] = molecular target: T1, human α-thrombin (Homo sapiens, UniProt P00734); experiment: Chromogenic substrate assay, Ki (Dixon); assay type: biochemical
T1 construct: purchased Haematologic Technologies (Essex Junction, VT)
Procedure: (§2) Chromogenic substrate assays were performed using a Labsystems IEMS (Cergy Pontoise, France) microtiter plate reader. K i values were calculated according to the method of Dixon[65]. In each assay, the compound was tested at a minimum of seven concentrations, in duplicate, to obtain an inhibition curve. The following general procedures were adopted for each assay. In a 96-well microtiter plate, 25 μL of inhibitor solution or buffer was added to 50 μL of substrate. The enzyme solution (25 μL) was added just before the plate was placed in the microtiter plate reader for 1 h at 37 °C. The hydrolysis of the substrate yields p-nitroaniline, which was continuously monitored spectrophotometrically at 405 nm. The maximal initial reaction rates were calculated and expressed as millioptical density per minute.

[4] = system: human plasma; experiment: In vitro PT clotting time; assay type: biochemical; conditions: for PT / PT (INR): in vitro
Procedure: (§1) The aPTT and PT were determined using a Thrombotimer (Behnk Elektronik, Norderstedt, Germany) in accordance with the manufacturer’s instructions and as previously described. Briefly, citrated normal human plasma (90 μL) was mixed with 10 μL JJ1 and incubated for 1 min at 37 °C. Subsequently, the aPTT assay reagent (100 μL) was added, the plasma sample was incubated for an additional 1 min at 37 °C, 20 mM CaCl2 (100 μL) was added, and the clotting times were recorded. For the PT assays, citrated normal human plasma (90 μL) was mixed with 10 μL JJ1 stock solution and was incubated for 1 min at 37 °C. The PT assay reagent (200 μL), which had been pre-incubated for 10 min at 37 °C, was subsequently added and the clotting time was recorded. The PT results were expressed in seconds and as International Normalized Ratios (INR): INR = (PT sample/PT control)^ISI, where ISI = international sensitivity index. The aPTT results were also expressed in seconds. All experimental protocols (KNUH 2012-01-010) were approved by the Institutional Review Board of Kyungpook National University Hospitals (Daegu, Republic of Korea).

[5] = system: human plasma; experiment: In vitro aPTT clotting time; assay type: biochemical; conditions: at the maximum antithrombotic dose
[6] = Ex vivo aPTT clotting time; assay type: in vivo, C57BL/6 mice; conditions: mice, i.v., 1 h after administration
Procedure: as §1
Male C57BL/6 mice were fasted overnight. Each compound was dissolved in 0.5% DMSO and administered by i.v. injection. One hour after administration, arterial blood samples (0.1 mL) were collected in 3.8% sodium citrate (1:10, v/v) for the ex vivo aPTT and PT determination. The clotting times were determined as described above.

[7] = molecular target: T2, thrombin (Homo sapiens, UniProt P00734); experiment: Thrombin activity assay (amidolytic activity, S-2238); assay type: biochemical; conditions: α-Thrombin, chromogenic substrate; read-out: IC50, inhibition of amidolytic activity of thrombin (converted)
T2 construct: thrombin solution (150 μL, 10 U/mL) was added; purchased Haematologic Technologies (Essex Junction, VT)
Procedure: Following a 2-min incubation at 37 °C, thrombin solution (150 μL, 10 U/mL) was added, followed by incubation at 37 °C for 1 min. A solution of the thrombin substrate, S-2238, (150 μL, 1.5 mM) solution was subsequently added and the absorbance at 405 nm was monitored for 120 s using a spectrophotometer (TECAN, Männedorf, Switzerland).

[8] = molecular target: Urokinase (Homo sapiens, UniProt P00749); experiment: Chromogenic substrate assay, Ki (Dixon); assay type: biochemical
Procedure: as §2

[9] = molecular target: T3, Plasmin (Homo sapiens, UniProt P00747); experiment: Chromogenic substrate assay, Ki (Dixon); assay type: biochemical
T3 construct: thrombin versus trypsin, factor Xa, elastase, plasmin, protein Ca, streptokinase, tPA, and urokinase
T3 sequence (P00747 581-810 limits assumed): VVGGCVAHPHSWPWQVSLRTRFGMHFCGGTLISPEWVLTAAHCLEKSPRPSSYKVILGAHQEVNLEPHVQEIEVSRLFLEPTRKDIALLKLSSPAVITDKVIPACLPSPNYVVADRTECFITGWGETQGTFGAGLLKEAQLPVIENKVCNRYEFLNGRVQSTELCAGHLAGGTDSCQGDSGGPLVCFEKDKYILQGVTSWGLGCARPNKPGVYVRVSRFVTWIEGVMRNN
T3 sequence (P00747 97-580 limits assumed): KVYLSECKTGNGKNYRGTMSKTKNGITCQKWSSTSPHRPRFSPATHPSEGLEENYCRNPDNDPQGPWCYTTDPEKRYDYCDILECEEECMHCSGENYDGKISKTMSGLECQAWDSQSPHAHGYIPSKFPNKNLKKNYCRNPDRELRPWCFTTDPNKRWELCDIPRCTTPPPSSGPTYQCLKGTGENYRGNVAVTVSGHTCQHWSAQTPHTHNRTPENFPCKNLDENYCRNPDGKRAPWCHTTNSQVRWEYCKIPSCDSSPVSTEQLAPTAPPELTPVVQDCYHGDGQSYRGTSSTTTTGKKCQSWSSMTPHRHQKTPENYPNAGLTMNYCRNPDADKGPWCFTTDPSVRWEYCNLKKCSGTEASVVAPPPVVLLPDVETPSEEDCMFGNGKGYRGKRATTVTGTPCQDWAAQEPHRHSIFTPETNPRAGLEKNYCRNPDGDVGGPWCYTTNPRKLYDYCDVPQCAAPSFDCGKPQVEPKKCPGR
Procedure: as §2

[10] = Acute pulmonary thrombosis induced by collagen and epinephrine; assay type: in vivo, C57BL/6 mice; conditions: mice, i.v. 1 h before collagen (500 μg/kg) plus epinephrine (50 μg/kg)
Procedure: Male C57BL/6 mice were fasted overnight and divided into groups of 10 animals. JJ1 suspended in DMSO was administered to mice intravenously. After 1 h, a mixture of collagen (500 μg/kg) plus epinephrine (50 μg/kg) was injected into the tail vein of mice to induce acute thrombosis 1 h later. Each mouse was carefully examined for 15 min to determine whether the mouse was paralyzed, dead, or had recovered from the acute thrombotic challenge. Five separate experiments were performed and the results were subjected to statistical analysis.

[11] = system: thrombin-catalyzed fibrin polymerization in human plasma; experiment: Thrombin-catalyzed fibrin polymerization; assay type: biochemical; conditions: absorbance at 360 nm
Procedure: Thrombin-catalyzed polymerization was determined every 6 s for 20 min by monitoring the turbidity of the solution at 360 nm at ambient temperature by using a spectrophotometer (TECAN, Männedorf, Switzerland). Control plasma and plasma incubated with JJ1 were diluted three-fold in […] and clotted with thrombin (final concentration: 0.5 U/mL). The maximum polymerization rate (Vmax, ΔmOD/min) from each absorbance curve was recorded.

With `c1ccc2c(NC3CCCC3)nc(Nc3ccncc3)nc2c1` [JJ1] the “Mouse platelet aggregation induced by thrombin, ex vivo” value [1] was “confirmed in an ex vivo platelet aggregation assay”, the “Growth of thrombi (time to large thrombus formation)” value ([2]; FeCl3-induced thrombosis) was “significantly slowed the growth of thrombi” and the “Thrombus size at 60 min after FeCl3-induced endothelial injury” value [2] was “reduced FeCl3-induced thrombus formation”. The Selectivity ratio ([3]; K i enzyme/K i α-thrombin) was 1, the Ki ([3]; mean ± SD (n = 5)) was 19 ± 0.5 nM and the “Concentration that doubled the clotting time, PT assay” value [4] was 1.61 µM. The PT ([4]; 0.05 μM) was 12.1 ± 0.2 s, the “PT (INR)” value ([4]; 0.05 μM) was 1.04 INR and the PT ([4]; 0.1 μM) was 11.7 ± 0.4 s. The “PT (INR)” value ([4]; 0.1 μM) was 0.96 INR, the PT ([4]; 0.2 μM) was 12.7 ± 0.5 s and the “PT (INR)” value ([4]; 0.2 μM) was 1.17 INR. For the same molecule, the PT ([4]; 0.5 μM) was 15.4 ± 0.4 s, the “PT (INR)” value ([4]; 0.5 μM) was 1.86* INR and the PT ([4]; 1.0 μM) was 21.4 ± 0.5 s. The “PT (INR)” value ([4]; 1.0 μM) was 4.09* INR, the PT ([4]; 2.0 μM) was 25.8 ± 0.3 s and the “PT (INR)” value ([4]; 2.0 μM) was 6.41* INR. The PT ([4]; 5.0 μM) was 26.5 ± 0.4 s, the “PT (INR)” value ([4]; 5.0 μM) was 6.83* INR and the “Prolongation of aPTT” value [5] was 2.17 fold. For the same molecule, the aPTT ([6]; 0.31 μg/mouse) was 31.9 ± 0.6 s, the aPTT ([6]; 0.61 μg/mouse) was 40.1 ± 1.1 s and the aPTT ([6]; 1.23 μg/mouse) was 49.4 ± 1.5 s. For the same molecule, the aPTT ([6]; 3.06 μg/mouse) was 55.8 ± 1.2 s, the IC50 [7] was 150 nM and the Selectivity ratio ([8]; K i Urokinase/K i α-thrombin) was >10,000. The Ki ([8]; Urokinase) was over 250000 nM, the Selectivity ratio ([9]; K i Plasmin/K i α-thrombin) was >10,000 and the Ki ([9]; Plasmin) was over 250000 nM. For the same molecule, the Mortality [10] was “decreased significantly” and the “Maximal rate of fibrin polymerization” value [11] was “significantly decreased the maximal rate of fibrin polymerization”.
